Source: publication PMC9306349, “A Process for the Design and Development of Novel Bone Morphogenetic Protein-7 (BMP-7) Mimetics With an Example: THR-184” (Frontiers in Pharmacology, 2022)
Where two headings read alike, the source gives them in different places. Marks after values point to notes of the source that are not given here. Bridge positions count the residues as written; N and C are the ends. Peptide text beside a SMILES is read from it.

Experiments:
[1] = system: hemodynamics
Text: (§1) TABLE 2 THR-184 overview.

[2] = system: wound healing
Text: as §1

[3] = system: bleeding time
Text: as §1

[4] = system: patients having major cardio-vascular surgery requiring the cardiopulmonary pump; assay: Phase II clinical trial NCT01830920, AKI after cardio-vascular surgery with cardiopulmonary pump; assay type: in vivo, human; settings: clinical trial pharmacokinetic data; large variability of C Max and AUC
Text: The objective of the Phase II clinical trial, NCT01830920, ([Thrasos Innovation, Inc, 2013]), was to establish the dose, safety, and preliminary efficacy of THR-184 in a targeted patient population having major cardio-vascular surgery requiring the use of the cardiopulmonary pump The primary outcome of this clinical trial was the proportion of patients who develop AKI according to the KDIGO criteria ([Kidney Disease: Improving Global Outcomes (KDIGO) Acute Kidney Injury Work Group, 2012]). […] Use of urinary creatinine is not part of the KDIGO AKI criteria, but rather it is the urinary output that is part of the AKI definition. […] The clinical trial included serum samples for the analysis of KIM-1 and NGAL as exploratory endpoints, but there are as yet no published results from those samples.
SAE: number of Serious Adverse Events.

[5] = molecular target: T1, CYP450 1A2 (Homo sapiens, UniProt P05177); assay type: in vitro ADME
T1 sequence (P05177 1-516): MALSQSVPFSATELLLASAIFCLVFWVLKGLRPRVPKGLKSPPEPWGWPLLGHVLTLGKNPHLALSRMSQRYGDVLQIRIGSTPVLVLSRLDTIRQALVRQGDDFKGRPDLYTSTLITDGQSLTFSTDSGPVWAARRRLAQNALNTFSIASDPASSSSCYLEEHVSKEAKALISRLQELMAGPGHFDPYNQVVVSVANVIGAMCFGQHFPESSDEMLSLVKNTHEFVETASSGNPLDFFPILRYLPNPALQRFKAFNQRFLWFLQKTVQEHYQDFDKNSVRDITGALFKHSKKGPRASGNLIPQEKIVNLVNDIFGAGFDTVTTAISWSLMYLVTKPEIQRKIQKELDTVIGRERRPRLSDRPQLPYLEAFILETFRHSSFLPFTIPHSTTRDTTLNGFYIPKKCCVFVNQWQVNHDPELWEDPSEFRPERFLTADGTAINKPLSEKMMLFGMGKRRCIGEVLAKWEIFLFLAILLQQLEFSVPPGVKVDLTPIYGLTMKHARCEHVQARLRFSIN
Text: as §1

[6] = cited from earlier work
[7] = Stability of THR-184 in human plasma with and without ACE inhibitor; assay type: in vitro ADME; settings: compound administered with an ACE inhibitor, read-out: serum half-life
Text: Protease degradation of drug candidates can shorten their in-plasma half-life to the point that therapeutic exposure is severely compromised resulting in loss of efficacy.

[8] = Off-target survey; settings: 114 targets surveyed
Text: as §1

[9] = system: patients having major cardio-vascular surgery requiring the cardiopulmonary pump; settings: ref Himmelfarb et al., 2018, cited from earlier work
[10] = system: cancer growth; assay: Preclinical overview: cancer growth
Text: as §1

[11] = system: adult healthy male and female volunteers; settings: ref Himmelfarb et al., 2018, cited from earlier work
Protocol: In the first study, THR-P-427 (SAD), the drug (THR-184) was administered as slow intravenous infusions in a total of 40 adult healthy male and female volunteers. The study drug or placebo was administered once on the morning after a 10-h overnight fast. The solution was administered by slow injection via an indwelling catheter, at an infusion rate of 1 ml/min over 60 min. Five dose levels were studied: 0.3 mg/kg, 1 mg/kg, 3 mg/kg, 6 mg/kg and 10 mg/kg. Adverse events were recorded continuously during the study.

[12] = molecular target: CYP450 3A4 (Homo sapiens, UniProt P08684); assay: CYP450 isoform effect; assay type: in vitro ADME
Chain of CYP450 3A4 (P08684 whole entry, canonical isoform): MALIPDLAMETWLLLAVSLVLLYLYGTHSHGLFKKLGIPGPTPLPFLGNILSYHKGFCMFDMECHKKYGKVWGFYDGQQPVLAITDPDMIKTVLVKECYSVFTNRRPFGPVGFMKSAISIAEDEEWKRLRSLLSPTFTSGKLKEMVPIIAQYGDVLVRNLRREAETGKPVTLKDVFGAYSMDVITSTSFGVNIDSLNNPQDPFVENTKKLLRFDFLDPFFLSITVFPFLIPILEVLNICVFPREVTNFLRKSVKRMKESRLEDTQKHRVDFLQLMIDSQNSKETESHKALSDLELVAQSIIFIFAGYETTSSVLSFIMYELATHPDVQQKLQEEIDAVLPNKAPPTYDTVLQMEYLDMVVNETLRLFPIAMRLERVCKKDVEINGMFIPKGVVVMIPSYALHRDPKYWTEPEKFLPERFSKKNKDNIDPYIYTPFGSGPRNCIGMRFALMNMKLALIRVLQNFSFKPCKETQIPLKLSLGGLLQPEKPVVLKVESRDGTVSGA
Text: as §1

[13] = molecular target: CYP450 2C19 (Homo sapiens, UniProt P33261); assay: CYP450 isoform effect; assay type: in vitro ADME
Chain of CYP450 2C19 (P33261 whole entry, canonical isoform): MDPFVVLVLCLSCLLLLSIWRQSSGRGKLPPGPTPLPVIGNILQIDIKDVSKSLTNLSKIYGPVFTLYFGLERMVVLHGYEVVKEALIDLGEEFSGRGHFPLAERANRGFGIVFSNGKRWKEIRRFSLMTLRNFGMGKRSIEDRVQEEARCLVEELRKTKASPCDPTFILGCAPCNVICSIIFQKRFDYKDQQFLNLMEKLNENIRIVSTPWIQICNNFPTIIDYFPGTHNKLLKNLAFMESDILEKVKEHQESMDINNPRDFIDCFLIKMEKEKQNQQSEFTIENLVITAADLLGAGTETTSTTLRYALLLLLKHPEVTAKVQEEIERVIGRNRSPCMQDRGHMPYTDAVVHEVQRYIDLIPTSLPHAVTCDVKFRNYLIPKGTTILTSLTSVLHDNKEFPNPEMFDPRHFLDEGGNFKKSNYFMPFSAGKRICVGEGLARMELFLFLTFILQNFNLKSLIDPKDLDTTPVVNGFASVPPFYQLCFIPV
Text: as §1

[14] = molecular target: CYP450 2C9 (Homo sapiens, UniProt P11712); assay: CYP450 isoform effect; assay type: in vitro ADME
Chain of CYP450 2C9 (P11712 whole entry, canonical isoform): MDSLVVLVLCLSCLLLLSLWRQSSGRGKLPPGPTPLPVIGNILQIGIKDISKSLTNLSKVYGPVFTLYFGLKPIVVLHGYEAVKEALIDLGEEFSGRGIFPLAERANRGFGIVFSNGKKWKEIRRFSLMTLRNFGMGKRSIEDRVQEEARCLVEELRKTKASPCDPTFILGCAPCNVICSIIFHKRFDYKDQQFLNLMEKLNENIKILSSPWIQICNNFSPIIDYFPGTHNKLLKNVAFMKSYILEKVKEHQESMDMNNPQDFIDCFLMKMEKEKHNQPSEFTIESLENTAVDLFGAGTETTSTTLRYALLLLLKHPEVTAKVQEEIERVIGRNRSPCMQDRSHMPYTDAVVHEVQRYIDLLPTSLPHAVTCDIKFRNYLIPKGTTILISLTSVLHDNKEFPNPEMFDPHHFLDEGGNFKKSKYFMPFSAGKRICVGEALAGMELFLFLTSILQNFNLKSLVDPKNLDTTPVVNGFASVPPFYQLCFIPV
Text: as §1

[15] = molecular target: CYP450 2D6 (Homo sapiens, UniProt P10635); assay: CYP450 isoform effect; assay type: in vitro ADME
Chain of CYP450 2D6 (P10635 whole entry, canonical isoform): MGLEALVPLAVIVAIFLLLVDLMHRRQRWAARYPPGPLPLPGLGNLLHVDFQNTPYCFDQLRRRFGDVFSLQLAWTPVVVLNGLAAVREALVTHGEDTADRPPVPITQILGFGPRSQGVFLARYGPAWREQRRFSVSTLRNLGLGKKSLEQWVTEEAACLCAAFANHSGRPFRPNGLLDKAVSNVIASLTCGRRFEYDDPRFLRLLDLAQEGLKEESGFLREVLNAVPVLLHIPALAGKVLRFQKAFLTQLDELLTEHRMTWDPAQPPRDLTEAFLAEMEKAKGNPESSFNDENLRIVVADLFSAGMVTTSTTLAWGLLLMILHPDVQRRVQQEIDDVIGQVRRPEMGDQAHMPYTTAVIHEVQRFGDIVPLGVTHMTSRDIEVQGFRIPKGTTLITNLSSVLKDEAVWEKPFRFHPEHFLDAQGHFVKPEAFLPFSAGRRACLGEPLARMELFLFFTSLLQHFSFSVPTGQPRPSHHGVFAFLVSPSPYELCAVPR
Text: as §1

[16] = system: adult healthy male and female volunteers; settings: ref Himmelfarb et al., 2018, cited from earlier work; remark: listed apart in the source
Protocol: In the second study, THR-P-428 (MAD), THR-184 was administered as a slow intravenous infusion in a total of 24 adult healthy male and female volunteers, once daily over five consecutive days. THR-184 or the placebo was administered on the morning after a 10-h overnight fast. The solution was administered by slow injection via an indwelling catheter, at an infusion rate of 1 ml/min over 60 min. Three dose levels were studied: 0.3 mg/kg, 1 mg/kg, and 3 mg/kg. Adverse events were recorded continuously during the study.

[17] = system: ectopic bone formation; assay: Rat implant assay of ectopic bone formation; assay type: in vivo; settings: implanted in muscle pocket (Hydrogel or collagen carrier device), implants removed day 14, histology toluidine blue
Protocol: FIGURE 2 Failure of BMP-7 mimetic (THR-123) to induce ectopic bone formation in rat implant assay: This assay is based on the ability of BMP-7 to induce ectopic bone formation in the rat and was carried out as described earlier (The Journal of Biological Chemistry, Vol. 267, pp. 20352-20362,1992) to determine in vivo efficacy of THR-123. Briefly, bovine bone matrix (collagen carrier)/BMP-7 or Hydrogel/BMP-7 or Hydrogel/THR-123, devices (all lyophilized) were implanted in muscle pocket. […] This work was supported by Thrasos Therapeutics.

[18] = Arm 4 High Dose 0.46/0.02 mg/kg
[19] = Arm 5 Highest Dose 0.46/0.46 mg/kg
[20] = occurred equally in placebo and THR-184 treated subjects

CC(C)C[C@@H]1NC(=O)[C@H](C(C)C)NC(=O)[C@H](CO)NC(=O)[C@H](CO)NC(=O)[C@H](CO)NC(=O)[C@H](CC(N)=O)NC(=O)[C@H](CC(=O)O)NC(=O)[C@H](Cc2ccc(O)cc2)NC(=O)[C@H](Cc2ccc(O)cc2)NC(=O)[C@@H](N)CSSC[C@@H](C(=O)N[C@@H](CCCCN)C(=O)N[C@@H](CCCNC(=N)N)C(=O)N[C@@H](Cc2ccc(O)cc2)C(=O)N[C@@H](CCCNC(=N)N)C(=O)N[C@@H](CO)C(=O)O)NC1=O [THR-184] (H-CYYDNSSSVLCKRYRS-OH; disulfide 1-11)
hemodynamics [1]: Does not affect hemodynamics | wound healing [2]: Does not inhibit wound healing | bleeding time [3]: Does not affect bleeding time | relationship of dose to serum levels [4]: clear relationship of the dose to serum levels of the compound | effect on CYP450 1A2 [5]: Has no effect on key CYP450 isoforms (1A2, 2C19, 2C9, 2D6, 3A4) | Human Plasma Stability: t1/2 [6]: 6 min | half-life [7]: 1 h | off-target interactions [8]: Has no off-target interactions (114 targets surveyed) | Deaths ([9]; Arm 2 Low Dose 0.02/0.02 mg/kg): 4 # | SAE > 1 (Serious Adverse Events) ([9]; Arm 2 Low Dose 0.02/0.02 mg/kg): 46.7% | Deaths ([9]; Arm 3 Mid Dose 0.12/0.02 mg/kg): 5 # | SAE > 1 (Serious Adverse Events) ([9]; Arm 3 Mid Dose 0.12/0.02 mg/kg): 59.6% | Deaths [9, 18]: 4 # | SAE > 1 (Serious Adverse Events) [9, 18]: 42.0% | Deaths [9, 19]: 5 # | SAE > 1 (Serious Adverse Events) [9, 19]: 41.0% | cancer growth [10]: Does not promote cancer growth | most frequently observed adverse event [11, 20]: headache | serious adverse events ([11]; single 60 min iv infusion, 0.3-10 mg/kg, healthy volunteers): no serious adverse events observed | effect on CYP450 3A4 [12]: Has no effect on key CYP450 isoforms (1A2, 2C19, 2C9, 2D6, 3A4) | effect on CYP450 2C19 [13]: Has no effect on key CYP450 isoforms (1A2, 2C19, 2C9, 2D6, 3A4) | effect on CYP450 2C9 [14]: Has no effect on key CYP450 isoforms (1A2, 2C19, 2C9, 2D6, 3A4) | effect on CYP450 2D6 [15]: Has no effect on key CYP450 isoforms (1A2, 2C19, 2C9, 2D6, 3A4) | serious adverse events ([16]; 60 min iv infusion once daily for five days, 0.3-3 mg/kg, healthy volunteers): no serious adverse events observed | most frequently observed adverse event [16, 20]: somnolence

B1: BMP-7: Bone Morphogenetic Protein-7, positive control in rat implant assay (protein, UniProt P18075 293-431, looked up)
Bone morphogenetic protein 7: STGSKQRSQNRSKTPKNQEALRMANVAENSSSDQRQACKKHELYVSFRDLGWQDWIIAPEGYAAYYCEGECAFPLNSYMNATNHAIVQTLVHFINPETVPKPCCAPTQLNAISVLYFDDSSNVILKKYRNMVVRACGCH
ectopic bone formation [17]: induced bone formation
